Key:
CCKBR = molecular target: T1, CCKBR (Homo sapiens, UniProt P32239); experiment: Calcium response (Fluo-8 No Wash Calcium Assay Kit) in GPCR-overexpressing CHO cells; format: cell-based
T1 construct: expressed in transfected cells; host or cells: CHO cells (CHO-CCKBR)
T1 sequence (P32239 1-447): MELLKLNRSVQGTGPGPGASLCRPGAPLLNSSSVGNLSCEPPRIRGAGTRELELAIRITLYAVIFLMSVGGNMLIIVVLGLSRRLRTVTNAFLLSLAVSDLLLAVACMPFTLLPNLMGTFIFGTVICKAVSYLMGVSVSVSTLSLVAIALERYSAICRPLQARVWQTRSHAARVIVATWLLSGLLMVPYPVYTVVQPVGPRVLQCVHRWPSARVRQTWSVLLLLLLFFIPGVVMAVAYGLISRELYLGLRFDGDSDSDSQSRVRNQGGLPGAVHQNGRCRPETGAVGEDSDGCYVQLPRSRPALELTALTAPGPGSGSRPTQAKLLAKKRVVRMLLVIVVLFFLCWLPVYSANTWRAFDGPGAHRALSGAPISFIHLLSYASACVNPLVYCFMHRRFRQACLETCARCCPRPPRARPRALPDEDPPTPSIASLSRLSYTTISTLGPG
Experimental: In vitro screening system, HT-267 have been tested and measured calcium response by Fluo-8 No Wash Calcium Assay Kit in GPCRs overexpressed CHO cells, including CHO-CCKBR, CHO-CCKAR, CHO-HTR2B cells. These tests and measurements are performed as described in CN 113929737 A by Tortorella, et al., assigned to Regenerative Medicine and Health Innovation Centre Co., Ltd., et al., published on Jan. 14, 2022.

[1] = tested on: auditory thalamocortical pathway; experiment: HFS-induced thalamocortical LTP in CCK-KO mice with infusion into ACx (fEPSP slope); format: in vivo; settings: HT-267 5 μM, 0.5 μl into ACx, n=6, p<0.0001, FIG. 5C
Excerpt: The electrical stimulation is generated by an ISO-Flex isolator (A.M.P.I., Israel), which is controlled by a multifunction processor (RX6, TDT). The electrical current pulses for baseline test are 0.5 ms, 50-150 μA and presented every 10 s. The theta burst stimulation (TBS) contains four trails of 10 bursts at 5 Hz with the interval of 10 s between the trails, and each burst consists of 5 pulses at 100 Hz.
[…], two customized microelectrode arrays with four tungsten electrodes each, impedance: 0.5-1 MS2 (recording), and 200-500 kΩ (ES) (FHC, U.S.), are used for the auditory cortical neuronal activity recording and medial geniculate body ventral division (MGv) electrical stimulation and monitoring, respectively. […] 70 dB, 100 ms, noise bursts are presented every 10 s during the insertion of the electrode arrays, and neuronal activities are monitored as the electrode arrays are lowered until robust noise responses are achieved on both arrays. The final stimulating and recording positions are determined by maximizing the cortical field excitatory postsynaptic potential (fEPSP) amplitude triggered by the electrical stimulation in MGv.
The fEPSPs, which are elicited by 0.5 ms electrical current pulses, are amplified (×1000) and filtered (1 Hz-5 kHz), recorded with a 25 kHz sampling rate, and stored in a PC by OpenEx software (TDT). Before the recording, an input-output function is measured. […]

[2] = tested on: noise-induced tinnitus mice; experiment: Tinnitus mouse model, gap pre-pulse inhibition of the acoustic startle reflex (GPIAS) with sound therapy; format: in vivo; settings: 0.2 mg/kg intraperitoneal, one week (4 treatment days), combined with sound exposure; 12.6k, 16k, 20.1k, 28.7k Hz; FIGS. 6F-6I
Experimental: HT-267 is tested in the tinnitus mouse model. […] 7-9 weeks after tinnitus induction, more than 50% of mice developed tinnitus.
The inventors use the standard approach for assessing tinnitus in a rodent model, namely gap pre-pulse inhibition of the acoustic startle reflex (GPIAS) (FIGS. 2A-B). […] (Upper) Background sound and startle speakers are placed 10 and 13 cm respectively, from the point of microphone calibration. Signals from three force sensors placed under the testing tube in a triangular formation are averaged in a custom-made circuit and transmitted to TDT digital signal processor (DSP) for further analysis. (Lower) Timeline of a single GPIAS testing session. A GPIAS testing session consists of 3 blocks, lasting 36 minutes in total. The first block is the acclimation phase, lasting five minutes, where white noise is played from the “Cue” speaker for 5 minutes. Block two is the startle acclimation phase. To prevent outlier trials at the beginning of the testing session, 10 startle-only trials without any background sound are delivered to the animal. After block two, block three takes place, lasting 30 minutes. The 30 minute-long GPIAS session consisting of 300 individual trials (Five different background (BG) frequencies tested, for both GAP and NO_GAP conditions with 30 repeats for each BG frequency×GAP/NO_GAP condition pair). Each square represents one minute in the timeline. […]

[3] = tested on: auditory thalamocortical pathway; experiment: Thalamocortical LTP induction by CCK injection in the auditory cortex with low-frequency stimulation of MGv (fEPSP slope); format: in vivo; settings: CCK 1 μM, 1 μl into ACx, n=8, p<0.001, FIG. 3E
[4] = elimination half-life (t1/2) in plasma

Row | EC50 (CCKBR; CHO-CCKBR cells) [nM] | receptor specificity of calcium response (CCKBR; CHO-CCKBR vs CHO-CCKAR and CHO-HTR2B cells, FIG. 1) | Tmax (in vivo) [min] | blood-brain barrier passage (in vivo) | uptake rate of brain (in vivo) | half-life (in vivo; [4]) [min] | half-life (in vivo; t1/2 in brain) [min] | Compound | rescue of HFS-induced thalamocortical LTP (normalized fEPSP slope) [1] | change of GPIAS ratio pre- vs post-treatment [2] | normalized fEPSP slope after injection and LFS [3]
1 | ~0.05 | specifically activates CCKBR | ~1.98 | passes BBB easily | about 21.89% | ~105 | ~522 | CSCCC(NC(=O)[C@H](N)Cc1c[nH]c2ccccc12)C(=O)N[C@@H](CC(=O)O)C(=O)N[C@@H](Cc1cccc(Br)c1)C(N)=O (some centres unmarked) [HT-267] | abolished LTP could be rescued | significantly reduces | 
2 |  |  |  |  |  | ~13 |  | CSCC[C@H](NC(=O)C(N)Cc1c[nH]c2ccccc12)C(=O)NC(CC(=O)O)C(=O)N[C@@H](Cc1ccccc1)C(N)=O (some centres unmarked) [CCK-4, Cholecystokinin-4, reference compound] |  |  | 
3 |  |  |  |  |  |  |  | cholecystokinin [CCK] |  |  | lead to an enhancement in fEPSP

Reference: patent publication US20240238378A1, “METHODS AND CCK-B RECEPTOR AGONISTS FOR TREATING TINNITUS” (City University of Hong Kong, priority 2023, published 2024)
